Legend:
[1] = tested on: tonic-extension (maximal electroshock) seizures; test: Maximal electroshock seizure test; format: in vivo, mice; conditions: 4 mg/kg i.p., tested one hour later
Text: Abolition of the hindleg tonic extensor component of the seizure is used as the endpoint.

sound-induced seizures = test: Frings audiogenic seizure-susceptible mouse model; format: in vivo
Method: The two modified galanin analogs (GAL-BBB1 and GAL-BBB2) were administered i.p. to a group of Frings audiogenic seizure susceptible mice in a dose of 4 mg/kg. At various times after administration (i.e., 15, 30, 60, 120, and 240 min) each mouse was placed into a cylindrical test chamber fitted with an audio transducer and challenged with a high-intensity sound stimulus (110 dB, 11 KHz for 20 sec). Animals not displaying tonic hind-limb extension were considered protected. […] In a subsequent study, anticonvulsant efficacy was quantitated at the time to peak effect (i.e., 1 h) in a dose-response study.
The ability of individual modified analogs to prevent seizures induced by sound in the AGS-susceptible Frings mouse model can be assessed at the time of peak effect (White et al., 1992). For this test, individual mice are placed into a plexiglass cylinder (diameter, 15 cm; height, 18 cm) fitted with an audio transducer (Model AS-ZC; FET Research and Development, Salt Lake City, Utah), and exposed to a sound stimulus of 110 decibels (11 KHz) delivered for 20 seconds. Sound-induced seizures are characterized by wild running followed by loss of righting reflex with forelimb and hindlimb tonic extension. Mice not displaying hindlimb tonic extension are considered protected.
At various times after administration (i.e., 15, 30, 60, 120, and 240 min) each mouse was placed into a cylindrical test chamber fitted with an audio transducer and challenged with a high-intensity sound stimulus (110 dB, 11 KHz for 20 sec).

corneal kindling = test: Mouse corneal kindling acquisition; format: in vivo, CF#1 mice; conditions: 4 mg/kg i.p. twice daily
Method: CF#1 mice were randomized to receive either vehicle (0.9% saline) or NAX-5055. Mice in the NAX-5055 group received two doses of NAX-5055 twelve (12 h) and 1 h prior to their first kindling stimulation. One hour (1 h) prior to each subsequent stimulation, mice in the NAX-5055 treated group received another dose of NAX-5055 (4 mg/kg, i.p.). Mice were stimulated twice daily for 16 days. Results are expressed as the mean seizure score per stimulation. As noted above, the results for the NAX-5055 treated mice segregated into two populations; i.e., sensitive (green line) and insensitive (blue line).
Daily electrical stimulation via the cornea results in a stable kindled state within 15-20 days. This is an ideal model to initially assess the ability of selected galanin analogs to prevent kindling acquisition because the amount of peptide required is much lower than what is required for a rat kindling study. Those compounds found to be effective in preventing the acquisition of kindling are subsequently evaluated in a more traditional rat kindling model; i.e., amygdala kindled rat. For the proposed studies two groups of mice (n=8 mice per group) are randomized to receive either vehicle or peptide prior to each kindling stimulation. […] At the time to peak effect (obtained from the 6 Hz study), they are stimulated via corneal electrodes with a subconvulsive current (50 Hz, 3 mA, for 3.0 sec) and observed for the presence or absence of seizure activity. Seizure activity is scored according to the criteria established by Racine et al., (1972). Animals receive two stimulations per day until they display their first Stage 5 behavioral seizure and then once daily until they display stable secondarily generalized seizures (5 consecutive Stage 4-5 seizures). Peptide treatment continues in the experimental group until the point that the control mice become fully kindled. At this point, mice in both groups are permitted a one-week stimulus and treatment-free week. On the 8th day, mice in both groups are stimulated in the absence of peptide or vehicle and their seizure score recorded.
The ability of the blood-brain-barrier penetrant galanin-based neuropeptide NAX-5055 to prevent the development of corneal kindling was studied in CF#1 mice. The mouse corneal kindling model is a non-intrusive animal model of partial epilepsy wherein mice receive an initially subconvulsive current (3 mA) for 3 seconds via corneal electrodes twice daily for several days. Vehicle treated mice usually require between 12-16 days to reach a stable Stage 5 seizure; i.e., a secondary generalized focal seizure. In the present study, 16 mice were randomized to one of two experimental groups; saline or NAX-5055. […] Following stimulation seizure activity was scored on a scale of 0-5 as established by Racine (1972).

[2] = tested on: clonic (s.c. Metrazol) seizures; test: s.c. Metrazol seizure test; format: in vivo, mice; conditions: 4 mg/kg i.p., tested one hour later
Method: Mice will be placed into individual plexiglas observation boxes and observed for 30 minutes for the presence of a minimal clonic seizure. Mice not displaying clonic seizure activity will be considered protected.

[3] = tested on: secondarily generalized partial seizures; test: Hippocampal kindled rat model of partial epilepsy; format: in vivo; conditions: i.p.; decreases from 5
mechanical allodynia = test: Sciatic nerve ligation model, mechanical allodynia; format: in vivo, rats
Method: Just prior to surgery, rats are treated subcutaneously with 0.1 to 0.5 mg/kg of the long acting opiate buprenorphine. Rats are then anesthetized with pentobarbital and the depth of anesthesia monitored by their response to a tail pinch and observation of the depth of respiration. Sterile technique was used throughout the surgery.
The upper thigh of each rat was shaved and wiped off with ethanol and betadine. A small incision was made in the skin and through the underlying muscle of the upper thigh until the sciatic nerve was exposed. The nerve was then separated from the surrounding connective tissue and slightly elevated by a pair of fine, curved forceps. Approximately ⅓ to ½ of the nerve was then tied off by passing a needle and nylon suture (7.0) through the nerve. The muscle and skin incision was then closed sutured separately with 5.0 suture and the animals were kept warm by placing on a thermostatically controlled heat blanket until they have recovered from the anesthesia. This procedure was conducted on the right side (ipsilateral) while a sham surgery was performed on the left hind leg (contralateral). The latter involves a similar procedure with the exception that the sciatic nerve on this side was only exposed and not ligated. Twelve hours post surgery, a second dose of buprenorphine was administered to minimize any discomfort from the surgical procedure. Rats were closely monitored daily for the development of infection or untoward effects of the surgery.
After an appropriate time for recovery (e.g., 7-14 days) the animals were tested for the development of mechanical allodynia (pain response to a non-noxious stimulus). For this study, the animals placed in a bottomless plexiglass box placed on a wire mesh (¼″) platform. After a 30-60 minute acclimation period, a baseline mechanical sensitivity was determined. […] This procedure was repeated until a 50% threshold for withdrawal could be determined.

Sar-Trp-Thr-Leu-Asn-Ser-Ala-Gly-Tyr-Leu-Leu-Gly-Pro-Lys-Lys-(Lys-palm)-Lys-NH2 [NAX 5055]
activity in maximal electroshock seizure test [1]: completely inactive | blocking sound-induced seizures (sound-induced seizures; 4 mg/kg i.p., one hour after administration): effective | duration of anticonvulsant effect (sound-induced seizures; 4 mg/kg, i.p.): between two and four hours | onset of anticonvulsant effect (sound-induced seizures; 4 mg/kg, i.p.): ≤ 30 min | anticonvulsant ED50 (approximate) (sound-induced seizures; given i.p., refers to Example 2): ~3 mg/kg | median effective dose ED50 (95% confidence intervals) (sound-induced seizures; i.p., at time to peak effect 1 h, Probit analysis): 3.2 (2.3−6.1) mg/kg | kindling acquisition (corneal kindling): can delay kindling acquisition | more stimulations to reach Stage 2 and Stage 3 seizures, NAX-5055 sensitive group (corneal kindling): 35-40% | stimulations required to reach a Stage 1 seizure, NAX-5055 sensitive group (corneal kindling): two times more stimulations | mice of NAX-5055 sensitive group that reached Stage 5 seizures (corneal kindling; sensitive n=3 of 8): none | protection in s.c. Metrazol seizure test [2]: 25% | seizure score [3]: 3 | potency compared with morphine (mechanical allodynia; 2 mg/kg i.p. vs 2 mg/kg morphine): equi-potent | potency compared with gabapentin (mechanical allodynia; 2 mg/kg i.p. vs 40 mg/kg gabapentin): several fold more potent | threshold for mechanical allodynia (mechanical allodynia; 2 mg/kg i.p., 30 min to 6 h): time-dependent increase

Source: patent publication US20180340012A1, “METHODS AND CO[…] TO IMPROVING PROPERTIES OF PHARMACOLOGICAL AGENTS TARGETING NERVOUS SYSTEM” (University of Utah Research Foundation, priority 2006, published 2018)
